Laboratory results: the NIST ThermoML archive (doi:10.1016/j.jct.2015.11.017)
± gives the expanded uncertainty stated by the source.

Assay: mn = molality of the nth substance listed, in mol/kg
Conditions: 298.2 K, 101.3 kPa, Liquid, Alternating current cell with electrodes

CCCCCCCCCCCCOS(=O)(=O)[O-].[Na+] [sodium dodecyl sulfate] + O
electrical conductivity (m1 = 0.01003): 0.0586 ± 0.001 S/m | electrical conductivity (m1 = 0.01504): 0.0684 ± 0.001 S/m | electrical conductivity (m1 = 0.02006): 0.0816 ± 0.001 S/m | electrical conductivity (m1 = 0.02507): 0.097 ± 0.01 S/m | electrical conductivity (m1 = 0.03009): 0.106 ± 0.01 S/m
